Test results from patent US20130237478A1, “COMPOSITIONS AND METHODS FOR TREATMENT OF PERIPHERAL VASCULAR DISEASE” (TARIX PHARMACEUTICALS LTD., priority 2012, published 2013).

Columns and labels:
[1] = Body weight of mice in hind limb ischemia studies; assay type: in vivo, Balb/c mice; conditions: Example 1; 500 μg/kg SC daily; throughout the study (49 days)
Method: Body weight of animals was measured before the surgery and once weekly thereafter.
The model and procedures used for this example is the same as for those in Examples 1 and 2, unless otherwise specified.

[2] = system: Transient middle cerebral artery occlusion (tMCAO); experiment: Stepping test (forelimb akinesia) after tMCAO stroke; assay type: in vivo, rats
Method: (§1) For the purposes of this example, Transient middle cerebral artery occlusion (tMCAO) procedure Day is defined as “Day 1” in this study. On the day of surgery anesthesia were induced with 4% isoflurane in a mixture of 70% N2O and 30% O2 and maintained with 1.5-2% isoflurane.
The tMCAO procedures were performed according to the method described R. Schmid-Elsaesser et al. Briefly, the right CCA (Common Carotid Artery) was exposed through a midline neck incision and carefully dissected free from surrounding nerves and fascia—from its bifurcation to the base of the skull. The occipital artery branches of the ECA (External Carotid Artery) were then isolated, and these branches were dissected and coagulated. The ECA was dissected further distally and coagulated along with the terminal lingual and maxillary artery branches, which was then divided. The ICA (Internal Carotid Artery) was isolated and carefully separated from the adjacent vagus nerve, and the pterygopalatine artery was ligated close to its origin with a 5-0 nylon suture (SMI, Belgium). Next, a 4-0 silk suture was tied loosely around the mobilized ECA stump, and a 4 cm length of 4-0 monofilament nylon suture (the tip of the suture was blunted by using a flame, and the suture was coated with polylysine, prior to insertion) was inserted through the proximal ECA into the ICA and thence into the circle of Willis, effectively occluding the MCA. The surgical wound was closed and the animals were returned to their cages to recover from anesthesia. […]
Animals were tested for forelimb akinesia in a stepping test (ST). The animal was held with its hind limbs fixed with one hand and the forelimb not to be monitored with the other, while the unrestrained fore-paw touches the table. The number of adjusting steps are counted while the animal is moved sideways along the table surface (85 cm in approximately five seconds), in the forehand & backhand direction for both forelimbs. […]

[3] = system: Transient middle cerebral artery occlusion (tMCAO); experiment: Forelimb placement test after tMCAO stroke; assay type: in vivo, rats; conditions: 50 μg/kg by Alzet pump; particularly on Days 21 and 35
Method: as §1
(§2) The tMCAO procedures were performed according to the method described R. Schmid-Elsaesser et al. Briefly, the right CCA (Common Carotid Artery) was exposed through a midline neck incision and carefully dissected free from surrounding nerves and fascia—from its bifurcation to the base of the skull. The occipital artery branches of the ECA (External Carotid Artery) were then isolated, and these branches were dissected and coagulated. The ECA was dissected further distally and coagulated along with the terminal lingual and maxillary artery branches, which was then divided. The ICA (Internal Carotid Artery) was isolated and carefully separated from the adjacent vagus nerve, and the pterygopalatine artery was ligated close to its origin with a 5-0 nylon suture (SMI, Belgium). […]
For the forelimb-placing test, the rat was held close to a tabletop and the rat's ability to place the forelimb on the tabletop in response to whisker, visual, tactile, or proprioceptive stimulation was scored (0=normal, 12=maximally impaired). […]

[4] = system: Transient middle cerebral artery occlusion (tMCAO); experiment: Body swing test after tMCAO stroke; assay type: in vivo, rats; conditions: 50 μg/kg by Alzet pump
Method: as §1
The tMCAO procedures were performed according to the method described R. Schmid-Elsaesser et al. Briefly, the right CCA (Common Carotid Artery) was exposed through a midline neck incision and carefully dissected free from surrounding nerves and fascia—from its bifurcation to the base of the skull. The occipital artery branches of the ECA (External Carotid Artery) were then isolated, and these branches were dissected and coagulated. The ECA was dissected further distally and coagulated along with the terminal lingual and maxillary artery branches, which was then divided. The ICA (Internal Carotid Artery) was isolated and carefully separated from the adjacent vagus nerve, and the pterygopalatine artery was ligated close to its origin with a 5-0 nylon suture (SMI, Belgium). Next, a 4-0 silk suture was tied loosely around the mobilized ECA stump, and a 4 cm length of 4-0 monofilament nylon suture (the tip of the suture was blunted by using a flame, and the suture was coated with polylysine, prior to insertion) was inserted through the proximal ECA into the ICA and thence into the circle of Willis, effectively occluding the MCA. The surgical wound was closed and the animals were returned to their cages to recover from anesthesia. One hour and a half after occlusion rats were re-anesthetized, the monofilament was withdrawn to allow reperfusion, the surgical wound was closed and rats were returned to their cages.
Animals were subjected to a modified Modified Neurological Rating Scale (mNRS) at 24 hours post reperfusion. Only animals with an overall score of ≧10 were included in this study. Animals were allocated into the test groups, according to the mNRS results on day 2, in order to have similar distribution of rats performance between groups. Starting on day 2, 24 hours post-surgery, animals in groups 4, 5 and 7 were implanted subcutaneously with an osmotic Alzet pump and treated with either 500 μg/kg TXA127, 500 μg/kg PanCyte, or 50 μg/kg Linear PanCyte. Animals in groups 2, 3 and 6 received 500 μg/kg or 1,000 μg/kg TXA127 or 500 μg/kg PanCyte, administered subcutaneously via daily injection. Animals in group 1 were treated with a daily subcutaneous injection of a PBS (vehicle).
Each rat was held approximately one inch from the base of its tail. It was then elevated to an inch above a surface of a table. The rat was held in the vertical axis, defined as no more than 10° to either the left or the right side. A swing was recorded whenever the rat moves its head out of the vertical axis to either side. Before attempting another swing, the rat must return to the vertical position for the next swing to be counted. Twenty (20) total swings were counted. A normal rat typically has an equal number of swings to either side. Following focal ischemia, the rat tends to swing to the contralateral side (left side in this case). Body swing scores are expressed as a percentage of […] over total swings.

[5] = system: Transient middle cerebral artery occlusion (tMCAO); experiment: tMCAO stroke model, overall comparison of results; assay type: in vivo, rats; conditions: Linear PanCyte dose at least ten times lower than PanCyte
Source text: Without wishing to be held to a particular theory, it is possible that angiotensin-(1-7) peptides or functional equivalents, analogs or derivatives, and/or angiotensin-(1-7) receptor agonists such as TXA127, PanCyte and Linear PanCyte act to stimulate blood flow and tissue repair through angiogenesis. Such a mode of action would be extremely beneficial in a critical limb ischemia scenario since these conditions have deprivation of blood supply as a major source of pathology.
as §1
as §2, with “divided.” for “divided. The ICA (Internal Carotid Artery) was isolated and carefully separated from the adjacent vagus nerve, and the pterygopalatine artery was ligated close to its origin with a 5-0 nylon suture (SMI, Belgium).”

Row | Compound | body weight vs vehicle [1] | stepping test results compared with TXA127 or PanCyte ([2]; 50 μg/kg by Alzet pump) | stepping test performance vs vehicle ([2]; all experimental conditions (Table 22), by Day 28 post-surgery) | forelimb placement performance compared with other groups [3] | body swing performance ([4]; by Day 21) | body swing performance vs vehicle ([4]; by Day 28) | results in stroke model compared with PanCyte [5]
1 | CC[C@H](C)[C@H](NC(=O)[C@H](Cc1ccc(O)cc1)NC(=O)[C@@H](NC(=O)[C@H](CCCNC(=N)N)NC(=O)[C@@H](N)CC(=O)O)C(C)C)C(=O)N[C@@H](Cc1c[nH]cn1)C(=O)N1CCC[C@H]1C(=O)O [TXA127, Asp^1-Arg^2-Val^3-Tyr^4-Ile^5-His^6-Pro^7 (SEQ ID NO: 1)] | no statistically significant differences | – | – | – | – | – | –
2 | Asp^1-Arg^2-Val^3-Ser^4-Ile^5-His^6-Cys^7 (SEQ ID NO:5) (DRVSIHC) [Linear PanCyte] | – | substantially equivalent to ten times as much TXA127 or PanCyte | significantly improved the performance | best performance | showed improvement | significant improvement in performance | at least as impressive as PanCyte and in many cases even more impressive results
